Laboratory results: patent US12552854B2, “Peptides that block presentation of antigenic islet peptides by HLA-DQ8 and methods for treating type-1 diabetes” (Icahn School of Medicine at Mount Sinai, priority 2019, dated 2026)
“Also recorded” adds a separate entry of the source.

Columns and labels:
[1] = Half-life and Intrinsic Clearance of RI-CT and RI-EXT (1 µM) after Incubation with Mouse Hepatocytes
Procedure: Table printed on a drawing sheet, FIG. 20
Title: Half-life and Intrinsic Clearance of RI-CT and RI-EXT (1 µM) after Incubation with Mouse Hepatocytes
First reader's note: The footnotes are printed inside the table frame as its last two rows; midazolam is a small-molecule positive control.

[2] = tested on: PBMCs isolated from DQ8 positive T1D patients; experiment: CFSE T-cell proliferation in PBMCs from DQ8 positive recent-onset T1D patients; assay type: cell-based, human; settings: all peptides at 50 μg/ml
Description: (§1) Subjects with a diagnosis of T1D within the previous 2 years were recruited from the Pediatric Endocrine clinic at Children Hospital at Montefiore and from the adult Endocrine clinics at Montefiore and Mount Sinai Hospitals (New York). Peripheral blood mononuclear cells (PBMCs) were isolated from heparinized blood using Ficoll-Paque (GE Healthcare); freshly isolated PBMCs were used for T-cell activation studies and for genotyping. DNA purified from the blood of the patients was typed for HLA-DQ as previously described (32). PBMCs isolated from DQ8 positive patients were seeded in 96 well plates with 200 μl medium (RPMI, 10% FBS). […] The stimulated PBMCs were assessed for cytokine production and T-cell proliferation as described above for mouse splenocytes. DQ8 typed patients with long standing T1D (>10 years) were used as negative controls in the experiments (no T-cell responses to islet peptides).

[3] = tested on: T-cells of InsB:9-23-immunized SJL-DQ8 mice; experiment: In vivo D-peptide treatment of InsB:9-23-immunized SJL-DQ8 humanized mice; set-up: species or system mouse; settings: 200 μg intraperitoneally on days 4, 7, 11 and 14; sacrifice day 17
[4] = target: T1, recombinant HLA-DQ8 protein (Homo sapiens, UniProt P01909+P01920); experiment: DELFIA immunoassay: inhibition of biotinylated InsB:9-23 binding to recombinant HLA-DQ8; settings: for inhibition of InsB:9-23 binding to HLA-DQ8 (in words): D-peptides screened at 10 μM, recombinant HLA-DQ8
T1 construct: contained the extracellular portion of the DQA1*0301 α chain fused to the coiled-coil region of the basic leucine zipper domain of Fos; contained the extracellular portion of the DQB1*0302 β chain fused to the coiled-coil region of the basic leucine zipper domain of JunB; Fos leucine zipper (coiled-coil region) (C); TEV protease site (internal); His6; JunB leucine zipper (coiled-coil region) (C); FLAG; host or cells: baculovirus system
Description: HLA-DQ8 protein was produced using the baculovirus system. Two constructs were designed for both the α and the β chains of HLA-DQ8. The β chain construct contained the extracellular portion of the DQB1*0302 β chain fused to the coiled-coil region of the basic leucine zipper domain of JunB, and the α chain construct contained the extracellular portion of the DQA1*0301 α chain fused to the coiled-coil region of the basic leucine zipper domain of Fos. […] A tobacco etch virus protease cutting site was introduced in each chain to allow removal of the dimerization motif. The JunB and Fos dimerization motifs were added in order to allow the α and β chains to dimerize and form the final HLA-DQ8 protein (FIG. 12A). These constructs were used to produce the HLA-DQ8 protein in a baculovirus system using the Life Technologies Baculovirus protein production custom services (Carlsbad, CA).
D-peptides were produced by Fisher Scientific (Hanover Park, IL) in dry form and dissolved in PBS. All D-peptides were screened at a concentration of 10 μM for their ability to bind to the HLA-DQ8 pocket and block it from binding the InsB:9-23 peptide using a unique immunoassay (23). […] After washing 4 times, DELFIA Europium-labeled streptavidin (PerkinElmer) diluted in DELFIA assay buffer (PerkinElmer) was added for 30 minutes and shaken at slow speed at room temperature. Since the InsB:9-23 peptide was biotinylated the complex HLA-DQ8-InsB:9-23 peptide could be detected using the Europium-labeled streptavidin. After washing for 6 times, DELFIA Enhancement Solution was added for 1 hour or until the optimal signal was reached. Time-resolved fluorescence was measured using the BMG reader (BMG Labtech, Cary, NC). The experiment was performed in triplicate. As a negative control biotinylated InsB:9-23 peptide that was not pre-incubated with HLA-DQ8 was added to the nickel coated plates.
Immunoassay was performed as described above.

[5] = tested on: PBMCs isolated from DQ8 positive T1D patients; experiment: Cytokine production in PBMCs from DQ8 positive recent-onset T1D patients; assay type: cell-based, human; settings: stimulated with InsB:9-23 for 48 h; all peptides at 50 μg/ml
Description: as §1

[6] = Metabolic stability in mouse hepatocytes; assay type: in vitro ADME; settings: mouse, hepatocytes; 1 μM; read-out: half-life after incubation with mouse hepatocytes (converted)
Procedure: Cryopreserved mouse hepatocytes were thawed at 37° C. in water bath until the ice was almost melted (˜90 seconds). The suspensions from the each were immediately transferred to 50 mL centrifuge tubes containing pre-warmed thawing media (VitroGRO HT Medium, Thawing) at 37° C. The cell suspensions were centrifuged at 50 g for 5 minutes at 4° C. (SYS679). Supernatants were discarded and the pellets were re-suspended in pre-warmed 3 mL incubation media (from in vitroGRO HT Medium, Incubation) at 37° C. The percentages of viable cells in the suspension were determined by using the Trypan Blue stain method (20 μL of tryptan blue and 20 μL of cell suspension) DF=2. Cryo mouse hepatocyte (Bioreclamation, lot #CHV) viability was 72.62% (viable/dead=305/115), and the total cells were 4.57 million. 1.57 mL of incubation media was added to cell concentration to get 1 million cells/mL. 10 μl of 100 μM test compounds stock in ACN:H2O (v:v, 1:1) was added to 990 μl of hepatocyte suspension/incubation media in a 24-well plate. 10 μl of 20 μM Midazolam was added to 990 μl of hepatocyte suspension as a positive control in a 24-well plate. The cells were incubated in a 37° C. incubator (SYS431) for 4 hours. 50 μl of aliquots (n=2) were added to 800 ul of MeOH:water (v:v, 5:95) at 0, 15, 30, 60, 120, 180 and 240 minutes. For all samples, 20 μL of internal standard (200 ng/mL tolbutamide) was added to the solution in water. The samples were vortexed vigorously for 5 minutes and then loaded onto a pre-conditioned Oasis HLB 96-well SPE plate (10 mg, […]). The Oasis HLB 96-well SPE plate was conditioned with 1 mL of methanol and then rinsed with 1 mL of water before the samples were loaded. Once loaded onto the Oasis HLB 96-well SPE plate, residual solution was removed by vacuum. The samples were eluted into a clean 96-well plate with 800 μL of 0.1% formic acid in 70% acetonitrile. The samples were evaporated to dryness under nitrogen at ambient temperature using a TurboVap 96 Concentration Workstation (Caliper Life Sciences). […]

[7] = tested on: splenocytes isolated from SJL-DQ8 mice; experiment: Ex vivo CFSE T-cell proliferation, splenocytes of InsB:9-23-immunized SJL-DQ8 mice; assay type: cell-based, mouse; settings: all peptides at 50 μg/ml; 5 days
Description: ID NO: 23) and reverse primer [NT]

[8] = target: T2, HLA-DQ8 expressed on BSM cells (Homo sapiens, UniProt P01909+P01920, F237L); experiment: Flow cytometric analysis of InsB:9-23 peptide binding to BSM cells; assay type: cell-based; settings: flow cytometry
T2 construct: BSM cells that express HLA-DQ8 on their surface; host or cells: BSM cells (B-cell line homozygous for HLA-DQ8)
Procedure: N-terminal biotinylated peptide InsB:9-23 (or gliadin) were used to test for binding to BSM cells that express HLA-DQ8 on their surface. APC-streptavidin (BD Biosciences, Franklin Lakes, NJ) were used to detect the biotinylated peptides. […] After 24 hours incubation, cells were stained with PE-mouse anti-human HLA-DQ8 (BD Biosciences) and APC-streptavidin to detect the percent binding of the peptide to BSM cells with or without D-peptides. Percent binding was analyzed by flow cytometry.

[9] = tested on: 5KC cells (TCR specific for the InsB:9-23-DQ8 complex) with BSM cells; experiment: Mixed lymphocyte reaction (BSM cells loaded with InsB:9-23 and 5KC cells), IL-2 by Luminex; assay type: cell-based, human, murine; settings: peptide loaded on BSM cells
Procedure: BSM cells homozygous for HLA-DQ8 (European Collection of Authenticated Cell Cultures) were cultured in RPMI growth medium (ATCC, Manassas, VA) supplied with 10% fetal bovine serum (FBS) (Sigma), 1% penicillin-streptomycin (Corning, NY), and 2 mM glutamine (Corning). Cells were grown at 37° C., 5% CO2, and passaged 1-2 times a week. 5KC cells (generously provided by Dr. Maki Nakayama, University of Colorado, Denver) were produced and cultured as described (25, 26).
To functionally test in vitro D-peptides ability to block T-cell activation, 10^6 BSM cells were incubated over night with 200 μg/ml InsB:9-23 (or with scrambled InsB:9-23 or gliadin as negative peptides); on the following day InsB:9-23 loaded BSM cells were washed twice with phosphate buffered saline (PBS) to remove excess peptide and RI-CT or RI-EXT peptides (or scrambled RI-CT/RI-EXT, as negative controls) were added to the cells. Following 2 hours of incubation at 37° C. 5KC cells were added to the mixture BSM-InsB:9-23-D-peptides (1:1 proportion) and incubated overnight. 5KC cells are transfected with human T-cell receptor that is activated only upon engagement with HLA-DQ8-InsB:9-23 complex. […] After overnight incubation of the 5KC cells with BSM cells loaded with InsB:9-23 and with different D-peptides IL-2 production was measured in the supernatants by Luminex assay. […]

T2 sequence (P01920 33-261 A45G/Y58L/E77G/D89A/H199R/T217I, other chains not shown): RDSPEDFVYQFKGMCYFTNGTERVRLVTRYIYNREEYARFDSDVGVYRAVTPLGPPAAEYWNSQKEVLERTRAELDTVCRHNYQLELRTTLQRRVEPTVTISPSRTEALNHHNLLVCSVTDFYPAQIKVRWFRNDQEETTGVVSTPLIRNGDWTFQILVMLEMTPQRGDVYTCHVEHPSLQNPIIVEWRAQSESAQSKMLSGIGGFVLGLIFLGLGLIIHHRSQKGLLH

CC(C)C[C@@H](NC(=O)[C@@H](Cc1ccc(O)cc1)NC(=O)[C@@H](CC(C)C)NC(=O)[C@H](NC(=O)[C@@H](CS)NC(=O)CNC(=O)[C@@H](CCC(=O)O)NC(=O)[C@@H](CCCNC(=N)N)NC(=O)CNC(=O)CNC(=O)[C@@H](Cc1ccccc1)NC(=O)[C@H](N)Cc1ccccc1)C(C)C)C(=O)N[C@H](C)C(=O)N[C@H](CCC(=O)O)C(=O)N[C@@H](C(=O)N[C@H](CC(C)C)C(=O)N[C@H](Cc1c[nH]cn1)C(=O)N[C@H](CO)C(=O)NCC(=O)O)C(C)C [RI-EXT]
CLint (mL/min/million cells) [1]: 0.012 mL/min/million cells | t1/2 [1]: 0.963 h | T-cell proliferation induced by InsB:9-23 (CFSE assay), PBMCs of DQ8 positive T1D patients [2]: significantly suppressed; also recorded: significantly decreased | activation of T-cells by InsB:9-23 in immunized mice (IL-2, IFN-γ of splenocytes) [3]: significantly blocked | inhibition of InsB:9-23 binding to HLA-DQ8 (in words) [4]: significant inhibition | inhibition of InsB:9-23 binding to HLA-DQ8 (in words) ([4]; listed as #10): best extended sequence | dose dependence of the inhibition of InsB:9-23 binding to HLADQ8 ([4]; serially diluted to 0.5 μM, FIG. 3D): dose-dependent | IFN-γ production, PBMCs of DQ8 positive T1D patients [5]: significantly suppressed; also recorded: significantly decreased | IL-2 production, PBMCs of DQ8 positive T1D patients [5]: significantly suppressed; also recorded: significantly decreased | half-life [6]: ~1 h | T-cell proliferation induced by InsB:9-23 (CFSE assay), SJL-DQ8 splenocytes [7]: significantly suppressed; also recorded: significantly decreased | inhibition of the binding of InsB:9-23 to DQ8 expressed on BSM cells (in words) ([8]; 10 μM peptide): inhibits the binding

SHLVEALYLVCGERG [InsB:9-23, diabetogenic insulin peptide, reference compound]
induction of IL-2 secretion in 5KC cells / activation of 5KC cells [9]: dose-dependent manner | binding to the recombinant HLA-DQ8 protein ([4]; biotinylated peptide, compared to scrambled InsB:9-23, FIG. 3B): significant binding | binding of InsB:9-23 to HLA-DQ8 positive BSM cells ([8]; incubated without D-peptides): 84.8%
